Test results from patent publication US10287320B2, “Anti-lymphoma peptides” (Universitetet i Tromsø—Norges Arktiske Universitet, priority 2014, dated 2019).
Square brackets hold non-standard residues; d marks the D form. Ends that are not written are not given here. Trp(2,5,7-tBu3) = CC(C)(C)c1cc(C(C)(C)C)c2[nH]c(C(C)(C)C)c(C[C@H](N)C(=O)O)c2c1

Columns and labels:
A20 cells = assay: MTT cytotoxicity assay against A20 lymphoma cells; type: cell-based, Murine; conditions: for ΔIC50 (difference in activity against A20): compared with peptide 4a; for ΔIC50 on further increase of charge: 4a→5 and 6a→7, A20 cells; for IC50: A20 cells
Experimental: (§1) The first screen against A20 and MRC-5 was done manually, while the lymphoma panel screen were done at Marbio (Tromsø) using an automated platform (Biomek NX, Beckman Coulter). Cells were automatically counted (Z1 Coulter Particle Counter, Beckman Coulter) and the cells seeded out in 96-well plates. The plates were incubated for at least 16 hours before the start of the assay. The growth media was removed and the cells washed once with 100 μL assay media (RPMI-1640). Cells were then treated with 100 μL peptide solution (concentration varying from 500-10 μg/mL) for 4 hrs. Normal assay media and assay media containing 0.1% Triton were used as negative and positive controls, respectively. After this period 10 μL of a MTT solution (5 mg/mL) was added to each well and the plate incubated for a further 2 hrs. Following this 70 μL of the media was carefully removed and 100 μL acidified isopropanol added. The formed formazan crystals were dissolved by agitating the cells with a micropipette and by shaking (30 mins). The absorbance of the reduced MTT (formazan) was read on Versa Max Microplate Reader (Molecular Devices) at 590 nm. All assays, unless mentioned otherwise, were done in triplicate.

MRC-5 cells = assay: MTT cytotoxicity assay against MRC-5 normal fibroblasts (selectivity, SI-1); type: cell-based, Human
Experimental: The first screen against A20 and MRC-5 was done manually, while the lymphoma panel screen were done at Marbio (Tromsø) using an automated platform (Biomek NX, Beckman Coulter).
Cells were automatically counted (Z1 Coulter Particle Counter, Beckman Coulter) and the cells seeded out in 96-well plates. The plates were incubated for at least 16 hours before the start of the assay.
as §1, with “The” for “The first screen against A20 and MRC-5 was done manually, while the lymphoma panel screen were done at Marbio (Tromsø) using an automated platform (Biomek NX, Beckman Coulter). Cells were automatically counted (Z1 Coulter Particle Counter, Beckman Coulter) and the cells seeded out in 96-well plates. The plates were incubated for at least 16 hours before the start of the assay. The”
During the initial screening process peptide analogues was tested against normal human fibroblasts (SI-1) and the results used to estimate cytotoxicity towards healthy cells surrounding the tumor.

[1] = Cardiovascular toxicity assessment in telemeterized rats; type: in vivo, Sprague-Dawley rats; conditions: IV twice-daily, telemetry -1 to 8 hours
Experimental: Male Sprague-Dawley (Charles River, Portage, Mich.) rats (320-400 g) were instrumented with DSI (St. Paul, Minn.) telemetry transmitters by CorDynamics.
EWL-6 was stored in a freezer set to maintain approximately −20° C. and protected from light. A formulation comprising EWL-6 was prepared at a dose volume of 1 mL/kg/dose in 0.9% sodium chloride for injection, U.S.P., for IV dosing. Doses were filtered through a […] PP filter prior to injection.
Each rat was manually restrained and vehicle or EWL-6 dosed twice-daily intravenously over approximately 1-2 minutes. Daily doses were separated by approximately 4 hours.
Pulse pressure (FIG. 8) and mean arterial pressure (FIG. 9) were recorded for −1 to 8 hours following the first daily dose via telemetry and reported in 1 minute averages from −1 to 8 hours following the first daily dose.

HT-29 Colon carcinoma = type: cell-based; conditions: 4 h
Experimental: as §1, with “The” for “The first screen against A20 and MRC-5 was done manually, while the lymphoma panel screen were done at Marbio (Tromsø) using an automated platform (Biomek NX, Beckman Coulter). Cells were automatically counted (Z1 Coulter Particle Counter, Beckman Coulter) and the cells seeded out in 96-well plates. The plates were incubated for at least 16 hours before the start of the assay. The”

[2] = tested on: DU-145 Prostate carcinoma; type: cell-based; conditions: 4 h
Experimental: as §1, with “The” for “The first screen against A20 and MRC-5 was done manually, while the lymphoma panel screen were done at Marbio (Tromsø) using an automated platform (Biomek NX, Beckman Coulter). Cells were automatically counted (Z1 Coulter Particle Counter, Beckman Coulter) and the cells seeded out in 96-well plates. The plates were incubated for at least 16 hours before the start of the assay. The”

A20 lymphomas = conditions: mouse, in vivo
Experimental: A20 tumor cells were harvested, washed in RPMI-1640 and inoculated (i.d.) into the left side of the abdomen in BALB/c mice (5×10^6 cells in 50 μl RPMI-1640 per mouse). When the tumor size reached 20 mm^2 the mice were split into three groups and treated; Group1—nine mice with the vehicle (0.9% NaCl in sterile H2O), Group2a—eight mice where the tumors were treated with peptide 6a, and Group 3a—nine mice where the tumors were treated with peptide 11. Intralesional injections were performed once a day for three consecutive days.
Tumor size was measured three times a week using an electronic caliper and expressed as the area of an ellipse [(maximum dimension/2)×(minimum dimension/2)×[…]. Animals were killed when the tumor exceeded 100 mm^2. Animals were killed also if the tumor had not reached that size but presented ulcerations or the animals developed metastasis.
Survival curves were compared by the log-rank test. Groups were compared using one-way ANOVA test with Tukey's multiple comparison. Differences were considered significant when P<0.05.

[3] = tested on: SU-DHL-6 (diffuse large B cell lymphoma); type: cell-based, Human; conditions: 16 h
Experimental: as §1, with “Cells were then treated with 100 μL peptide solution (concentration varying from 500-10 μg/mL) for 4 hrs.” left out

three T-lymphoma lines = type: cell-based, Human; conditions: 16 h
Experimental: as §1

[4] = tested on: Namalawa (Burkitt's lymphoma); type: cell-based, Human; conditions: 16 h
Experimental: as §1

[5] = tested on: Ramos (Burkitt's lymphoma); type: cell-based, Human; conditions: 16 h
Experimental: as §1

[6] = Table 1, selectivity, normal human fibroblasts (MRC-5) versus A20 lymphoma, MTT
[7] = five most active peptides from the A20 screening, tested against normal human fibroblasts
[8] = Table 2, analogues of 6a, MRC-5 fibroblasts versus A20 lymphoma, MTT
[9] = Table 3, MRC-5 fibroblasts versus A20 lymphoma

(Tbt)R(Tbt)-GG-RRRRRRR (SEQ ID NO: 17) ([Trp(2,5,7-tBu3)]R[Trp(2,5,7-tBu3)]GGRRRRRRR-NH2; N-terminus assumed; SMILES CC(C)(C)c1cc(C(C)(C)C)c2[nH]c(C(C)(C)C)c(C[C@H](NC(=O)[C@H](CCCNC(=N)N)NC(=O)[C@@H](N)Cc3c(C(C)(C)C)[nH]c4c(C(C)(C)C)cc(C(C)(C)C)cc34)C(=O)NCC(=O)NCC(=O)N[C@@H](CCCNC(=N)N)C(=O)N[C@@H](CCCNC(=N)N)C(=O)N[C@@H](CCCNC(=N)N)C(=O)N[C@@H](CCCNC(=N)N)C(=O)N[C@@H](CCCNC(=N)N)C(=O)N[C@@H](CCCNC(=N)N)C(=O)N[C@@H](CCCNC(=N)N)C(N)=O)c2c1) [Peptide 4c]
ΔIC50 (difference in activity against A20) (A20 cells): small and unexpected decrease in activity | SI-1 (MRC-5 cells; [6]): 1 | SI-1 / selectivity (MRC-5 cells; [7]): almost no selectivity at all

KLAKLAKKLAKLAK-GG-RRRRRRR (SEQ ID NO: 9) [Peptide 1b]
SI-1 (MRC-5 cells; [6]): 5 | SI-1 / selectivity (MRC-5 cells; [7]): low selectivity

RWRW-GG-RRRRRRR (SEQ ID NO: 13) (RWRWGGRRRRRRR-NH2) [Peptide 5]
ΔIC50 on further increase of charge (A20 cells): ≈ 1 μM

RWRWRWGGRRRRRRR-NH2 [Peptide 7, RWRWRW-GG-RRRRRRR (SEQ ID NO: 15)]
ΔIC50 on further increase of charge (A20 cells): ≈ 1 μM | SI-1 / selectivity (MRC-5 cells; 16 h): higher than 10 | SI-1 (MRC-5 cells; [6]): 12

W-GG-RRRRRRR (SEQ ID NO: 10) (WGGRRRRRRR-NH2) [Peptide 2]
ΔIC50 (difference in activity against A20) (A20 cells): 58 µM

WGRRRRRGWGRRRRGW-NH2 [EWL-6, WGRRRRRGWGRRRRGW (SEQ ID NO: 8)]
mean arterial pressure compared to control [1]: No noticeable difference | pulse pressure compared to control [1]: No noticeable difference

WR(Tbt)-GG-RRRRRRR (SEQ ID NO: 16) (WR[Trp(2,5,7-tBu3)]GGRRRRRRR-NH2; N-terminus assumed; SMILES CC(C)(C)c1cc(C(C)(C)C)c2[nH]c(C(C)(C)C)c(C[C@H](NC(=O)[C@H](CCCNC(=N)N)NC(=O)[C@@H](N)Cc3c[nH]c4ccccc34)C(=O)NCC(=O)NCC(=O)N[C@@H](CCCNC(=N)N)C(=O)N[C@@H](CCCNC(=N)N)C(=O)N[C@@H](CCCNC(=N)N)C(=O)N[C@@H](CCCNC(=N)N)C(=O)N[C@@H](CCCNC(=N)N)C(=O)N[C@@H](CCCNC(=N)N)C(=O)N[C@@H](CCCNC(=N)N)C(N)=O)c2c1) [Peptide 4b]
SI-1 (MRC-5 cells; [6]): 2 | SI-1 / selectivity (MRC-5 cells; [7]): almost no selectivity at all

WRRRGRRWRGRRRW [Peptide 6c, WRRRGRRWRGRRRW (SEQ ID NO: 22)]
IC50 (A20 cells; Table 3, MTT, 4 hrs treatment): 6.1 µM | SI-1 (MRC-5 cells; [8]): >100 | SI-1 (MRC-5 cells; [9]): >100

WRRRRRWRRRRW-NH2 [Peptide 11, WRRRRRWRRRRW (SEQ ID NO: 23)]
IC50 (HT-29 Colon carcinoma): 70 µM | IC50 [2]: 69 µM | systemic toxic effects (A20 lymphomas): no signs of systemic toxic effects | IC50 [3]: < 10 µM | IC50 (three T-lymphoma lines): ~4.6 µM | IC50 [4]: < 10 µM | IC50 [5]: < 10 µM

WRWRW-GG-RRRR (SEQ ID NO: 20) (WRWRWGGRRRR-NH2) [Peptide 10]
SI-1 (MRC-5 cells; [8]): >23

WRWRW-GG-RRRRR (SEQ ID NO: 19) (WRWRWGGRRRRR-NH2) [Peptide 9]
SI-1 (MRC-5 cells; [8]): 23

WRWRW-GG-RRRRRR (SEQ ID NO: 18) [Peptide 8]
SI-1 (MRC-5 cells; [8]): 21

WRWRWGGKKKKKKK [WRWRW-GG-KKKKKKK, WRWRW-GG-KKKKKKK (SEQ ID NO:26)]
IC50 (A20 cells; as described in Example 1): 13.2 µM

WRWRWGGRRRRRRR-NH2 [Peptide 6a, WRWRW-GG-RRRRRRR (SEQ ID NO: 14)]
systemic toxic effects (A20 lymphomas): no signs of systemic toxic effects | IC50 [3]: < 10 µM | IC50 (three T-lymphoma lines): ~4.6 µM | IC50 [4]: < 10 µM | IC50 [5]: < 10 µM

WWWGGRRRRRRRRR [Peptide 6b, WWWGGRRRRRRRRR (SEQ ID NO: 21)]
IC50 (A20 cells; Table 3, MTT, 4 hrs treatment): 3.5 µM | SI-1 (MRC-5 cells; [8]): 9 | SI-1 (MRC-5 cells; [9]): 9
